Source: ChEMBL document CHEMBL1201861, “Genomics of Drug Sensitity in Cancer screening data, Wellcome Trust Sanger Institute”
pIC50: −log10 of the molar value.

Experiments:
Test in all cases: cells
Format in all cases: functional, cell-based, Homo sapiens
NCI-H1092 = conditions: Homo sapiens, NCI-H1092;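 note: cell growth inhibition measured with a cell viability assay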
Description: SANGER: Inhibition of human NCI-H1092 cell growth in a cell viability assay.

MS-1 = conditions: Homo sapiens, MS-1;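 note: growth inhibition of MS-1 cells, read out by cell viability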
Description: SANGER: Inhibition of human MS-1 cell growth in a cell viability assay.

SK-N-DZ = conditions: Homo sapiens, SK-N-DZ;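 note: growth inhibition of the cancer cell line, read out through a viability assay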
Description: SANGER: Inhibition of human SK-N-DZ cell growth in a cell viability assay.

HD-MY-Z = conditions: Homo sapiens, HD-MY-Z;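 note: growth inhibition of HD-MY-Z cells, read out with a cell viability assay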
Description: SANGER: Inhibition of human HD-MY-Z cell growth in a cell viability assay.

NB5 = conditions: Homo sapiens, NB5;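 note: growth inhibition of NB5 cells, read out as cell viability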
Description: SANGER: Inhibition of human NB5 cell growth in a cell viability assay.

NCI-H526 = conditions: Homo sapiens, NCI-H526;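 note: growth inhibition of the human NCI-H526 cell line, measured by a cell viability assay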
Description: SANGER: Inhibition of human NCI-H526 cell growth in a cell viability assay.

L-363 = conditions: Homo sapiens, L-363
Description: SANGER: Inhibition of human L-363 cell growth in a cell viability assay.

TGBC1TKB = conditions: Homo sapiens, TGBC1TKB;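 note: growth inhibition of TGBC1TKB cells, read out by a cell viability assay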
Description: SANGER: Inhibition of human TGBC1TKB cell growth in a cell viability assay.

TGW = conditions: Homo sapiens, TGW;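 note: growth inhibition of human TGW cells, read out with a cell viability assay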
Description: SANGER: Inhibition of human TGW cell growth in a cell viability assay.

NCI-H69 = conditions: Homo sapiens, NCI-H69;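 note: growth inhibition of the cell line, read out with a cell viability assay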
Description: SANGER: Inhibition of human NCI-H69 cell growth in a cell viability assay.

NB6 = conditions: Homo sapiens, NB6
Description: SANGER: Inhibition of human NB6 cell growth in a cell viability assay.

SNU-5 = conditions: Homo sapiens, SNU-5;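 note: cell viability readout used to measure growth inhibition in human NCI-SNU-5 cells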
Description: SANGER: Inhibition of human NCI-SNU-5 cell growth in a cell viability assay.

GB-1 = conditions: Homo sapiens, GB-1;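 note: growth of GB-1 cells judged by a viability assay, IC50 marks the concentration inhibiting growth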
Description: SANGER: Inhibition of human GB-1 cell growth in a cell viability assay.

NB69 = conditions: Homo sapiens, NB69;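 note: growth inhibition of NB69 cells, determined by a cell viability assay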
Description: SANGER: Inhibition of human NB69 cell growth in a cell viability assay.

LU-139 = conditions: Homo sapiens, LU-139
Description: SANGER: Inhibition of human LU-139 cell growth in a cell viability assay.

OCUB-M = conditions: Homo sapiens, OCUB-M;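 note: growth inhibition of the cancer cell line, read out through a cell viability assay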
Description: SANGER: Inhibition of human OCUB-M cell growth in a cell viability assay.

NB12 = conditions: Homo sapiens, NB12;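 note: growth inhibition of human NB12 cells, read out by a cell viability assay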
Description: SANGER: Inhibition of human NB12 cell growth in a cell viability assay.

CP66-MEL = conditions: Homo sapiens, CP66-MEL;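 note: growth inhibition of CP66-MEL cells determined in a cell viability assay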
Description: SANGER: Inhibition of human CP66-MEL cell growth in a cell viability assay.

AM-38 = conditions: Homo sapiens, AM-38;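 note: growth inhibition of AM-38 cells of human origin, read out by a cell viability assay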
Description: SANGER: Inhibition of human AM-38 cell growth in a cell viability assay.

C8166 = conditions: Homo sapiens, C8166;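 note: growth inhibition of human C8166 cells measured by a cell viability assay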
Description: SANGER: Inhibition of human C8166 cell growth in a cell viability assay.

DMS-79 = conditions: Homo sapiens, DMS-79;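 note: growth inhibition measured with a cell viability assay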
Description: SANGER: Inhibition of human DMS-79 cell growth in a cell viability assay.

SK-N-FI = conditions: Homo sapiens, SK-N-FI;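 note: cell viability assay measuring growth inhibition of human SK-N-FI cells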
Description: SANGER: Inhibition of human SK-N-FI cell growth in a cell viability assay.

HOP-62 = conditions: Homo sapiens, HOP-62;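 note: cell growth inhibition determined with a viability assay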
Description: SANGER: Inhibition of human HOP-62 cell growth in a cell viability assay.

HCC2157 = conditions: Homo sapiens, HCC2157;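 note: growth inhibition of the cancer cell line, read out as cell viability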
Description: SANGER: Inhibition of human HCC2157 cell growth in a cell viability assay.

DOHH-2 = conditions: Homo sapiens, DOHH-2;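 note: growth inhibition of human DOHH-2 cells, read out with a cell viability assay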
Description: SANGER: Inhibition of human DOHH-2 cell growth in a cell viability assay.

NTERA-2-cl-D1 = conditions: Homo sapiens, NTERA-2-cl-D1;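 note: inhibition of cell growth, measured with a cell viability assay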
Description: SANGER: Inhibition of human NTERA-S-cl-D1 cell growth in a cell viability assay.

ES1 = conditions: Homo sapiens, ES1;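 note: growth inhibition of ES1 cells, read out with a cell viability assay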
Description: SANGER: Inhibition of human ES1 cell growth in a cell viability assay.

MSTO-211H = conditions: Homo sapiens, MSTO-211H
Description: SANGER: Inhibition of human MSTO-211H cell growth in a cell viability assay.

CTV-1 = conditions: Homo sapiens, CTV-1;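 note: growth inhibition of the cell line, read out with a cell viability assay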
Description: SANGER: Inhibition of human CTV-1 cell growth in a cell viability assay.

IA-LM = conditions: Homo sapiens, IA-LM;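 note: cell viability assay measuring growth inhibition of human IA-LM cells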
Description: SANGER: Inhibition of human IA-LM cell growth in a cell viability assay.

NCI-H1304 = conditions: Homo sapiens, NCI-H1304;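 note: growth inhibition of the cancer cell line, measured in a cell viability assay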
Description: SANGER: Inhibition of human NCI-H1304 cell growth in a cell viability assay.

NCI-H747 = conditions: Homo sapiens, NCI-H747;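 note: growth inhibition of human NCI-H747 cells, read out by a cell viability assay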
Description: SANGER: Inhibition of human NCI-H747 cell growth in a cell viability assay.

ATN-1 = conditions: Homo sapiens, ATN-1;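 note: growth inhibition of human ATN-1 cells, read out with a cell viability assay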
Description: SANGER: Inhibition of human ATN-1 cell growth in a cell viability assay.

IST-MEL1 = conditions: Homo sapiens, IST-MEL1;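 note: growth inhibition of the cell line, read out with a cell viability assay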
Description: SANGER: Inhibition of human IST-MEL1 cell growth in a cell viability assay.

NCI-H209 = conditions: Homo sapiens, NCI-H209;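 note: growth inhibition of human NCI-H209 cells, measured by a cell viability assay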
Description: SANGER: Inhibition of human NCI-H209 cell growth in a cell viability assay.

UACC-257 = conditions: Homo sapiens, UACC-257
Description: SANGER: Inhibition of human UACC-257 cell growth in a cell viability assay.

A3-KAW = conditions: Homo sapiens, A3-KAW;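 note: growth inhibition of human A3-KAW cells, read out with a cell viability assay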
Description: SANGER: Inhibition of human A3-KAW cell growth in a cell viability assay.

SW 962 = conditions: Homo sapiens, SW 962;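 note: growth inhibition of human SW962 cells, read out by a cell viability assay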
Description: SANGER: Inhibition of human SW962 cell growth in a cell viability assay.

VA-ES-BJ = conditions: Homo sapiens, VA-ES-BJ;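 note: growth inhibition of the VA-ES-BJ cell line, read out by a cell viability assay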
Description: SANGER: Inhibition of human VA-ES-BJ cell growth in a cell viability assay.

EKVX = conditions: Homo sapiens, EKVX;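 note: growth inhibition of human EKVX cells, read out with a cell viability assay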
Description: SANGER: Inhibition of human EKVX cell growth in a cell viability assay.

HT-144 = conditions: Homo sapiens, HT-144
Description: SANGER: Inhibition of human HT-144 cell growth in a cell viability assay.

HCC1187 = conditions: Homo sapiens, HCC1187;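 note: growth inhibition of HCC1187 cells, read out with a cell viability assay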
Description: SANGER: Inhibition of human HCC1187 cell growth in a cell viability assay.

HEL = conditions: Homo sapiens, HEL;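 note: growth inhibition of HEL cells, read out with a cell viability assay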
Description: SANGER: Inhibition of human HEL cell growth in a cell viability assay.

KNS-81-FD = conditions: Homo sapiens, KNS-81-FD;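 note: growth inhibition of KNS-81-FD cells, read out with a cell viability assay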
Description: SANGER: Inhibition of human KNS-81-FD cell growth in a cell viability assay.

SK-UT-1 = conditions: Homo sapiens, SK-UT-1;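 note: growth inhibition of SK-UT-1 cells, measured by a cell viability assay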
Description: SANGER: Inhibition of human SK-UT-1 cell growth in a cell viability assay.

EW-24 = conditions: Homo sapiens, EW-24;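 note: human EW-24 cancer cell line, growth inhibition read out via a cell viability assay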
Description: SANGER: Inhibition of human EW-24 cell growth in a cell viability assay.

COR-L88 = conditions: Homo sapiens, COR-L88;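 note: growth inhibition of COR-L88 cells, read out with a cell viability assay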
Description: SANGER: Inhibition of human COR-L88 cell growth in a cell viability assay.

SCC-15 = conditions: Homo sapiens, SCC-15;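 note: growth inhibition of SCC-15 cells, read out with a cell viability assay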
Description: SANGER: Inhibition of human SCC-15 cell growth in a cell viability assay.

Question: What does the source list for Cc1cc([N+](=O)[O-])ccc1NS(=O)(=O)c1cc(Cl)ccc1Cl?
Answer: pIC50 (NCI-H1092): < 4.49; pIC50 (MS-1): 4.79; pIC50 (SK-N-DZ): < 4.49; pIC50 (HD-MY-Z): 4.85; pIC50 (NB5): 4.84; pIC50 (NCI-H526): 4.55; pIC50 (L-363): 5.07; pIC50 (TGBC1TKB): 5.08; pIC50 (TGW): < 4.49; pIC50 (NCI-H69): < 4.49; pIC50 (NB6): 4.87; pIC50 (SNU-5): < 4.49; pIC50 (GB-1): 5.66; pIC50 (NB69): 4.50; pIC50 (LU-139): 4.89; pIC50 (OCUB-M): 6.09; pIC50 (NB12): 4.95; pIC50 (CP66-MEL): 6.57; pIC50 (AM-38): 4.73; pIC50 (C8166): 5.21; pIC50 (DMS-79): < 4.49; pIC50 (SK-N-FI): 4.78; pIC50 (HOP-62): 5.29; pIC50 (HCC2157): 5.06; pIC50 (DOHH-2): 4.76; pIC50 (NTERA-2-cl-D1): 5.85; pIC50 (ES1): 4.94; pIC50 (MSTO-211H): < 4.49; pIC50 (CTV-1): 5.30; pIC50 (IA-LM): 5.52; pIC50 (NCI-H1304): < 4.49; pIC50 (NCI-H747): 5.13; pIC50 (ATN-1): < 4.49; pIC50 (IST-MEL1): 4.95; pIC50 (NCI-H209): < 4.49; pIC50 (UACC-257): 5.42; pIC50 (A3-KAW): 5.06; pIC50 (SW 962): 5.33; pIC50 (VA-ES-BJ): 5.91; pIC50 (EKVX): 5.12; pIC50 (HT-144): 5.53; pIC50 (HCC1187): 4.68; pIC50 (HEL): 5.16; pIC50 (KNS-81-FD): 4.67; pIC50 (SK-UT-1): 5.71; pIC50 (EW-24): < 4.49; pIC50 (COR-L88): < 4.49; pIC50 (SCC-15): 5.40

Question: How did the pIC50 (NCI-H1092) turn out when Oc1ccc2ccccc2c1SSc1c(O)ccc2ccccc12 was run?
Answer: < 4.49

Question: What about the pIC50 (MS-1) of the same molecule?
Answer: < 4.49

Question: What about the pIC50 (SK-N-DZ) of the same molecule?
Answer: 5.04

Question: What about the pIC50 (HD-MY-Z) of the same molecule?
Answer: < 4.49

Question: What about the pIC50 (NB5) of the same molecule?
Answer: < 4.49

Question: What about the pIC50 (NCI-H526) of the same molecule?
Answer: < 4.49

Question: What about the pIC50 (L-363) of the same molecule?
Answer: < 4.49

Question: What about the pIC50 (TGBC1TKB) of the same molecule?
Answer: < 4.49

Question: What about the pIC50 (TGW) of the same molecule?
Answer: < 4.49

Question: And the pIC50 (NCI-H69)?
Answer: < 4.49

Question: What about the pIC50 (NB6) of the same molecule?
Answer: 5.42

Question: And the pIC50 (SNU-5)?
Answer: < 4.49

Question: What about the pIC50 (GB-1) of the same molecule?
Answer: 5.58

Question: What about the pIC50 (NB69) of the same molecule?
Answer: 5.17

Question: And the pIC50 (LU-139)?
Answer: < 4.49

Question: And the pIC50 (OCUB-M)?
Answer: < 4.49

Question: And the pIC50 (NB12)?
Answer: < 4.49

Question: What about the pIC50 (CP66-MEL) of the same molecule?
Answer: < 4.49

Question: What about the pIC50 (AM-38) of the same molecule?
Answer: 4.66

Question: What about the pIC50 (C8166) of the same molecule?
Answer: < 4.49

Question: What about the pIC50 (DMS-79) of the same molecule?
Answer: < 4.49

Question: And the pIC50 (SK-N-FI)?
Answer: < 4.49

Question: And the pIC50 (HOP-62)?
Answer: < 4.49

Question: What about the pIC50 (HCC2157) of the same molecule?
Answer: < 4.49

Question: What about the pIC50 (DOHH-2) of the same molecule?
Answer: < 4.49

Question: And the pIC50 (NTERA-2-cl-D1)?
Answer: < 4.49

Question: What about the pIC50 (ES1) of the same molecule?
Answer: < 4.49

Question: What about the pIC50 (MSTO-211H) of the same molecule?
Answer: < 4.49

Question: What about the pIC50 (CTV-1) of the same molecule?
Answer: 5.03

Question: And the pIC50 (IA-LM)?
Answer: < 4.49

Question: What about the pIC50 (NCI-H1304) of the same molecule?
Answer: < 4.49

Question: What about the pIC50 (NCI-H747) of the same molecule?
Answer: < 4.49

Question: What about the pIC50 (ATN-1) of the same molecule?
Answer: < 4.49

Question: What about the pIC50 (IST-MEL1) of the same molecule?
Answer: < 4.49

Question: And the pIC50 (NCI-H209)?
Answer: < 4.49

Question: And the pIC50 (UACC-257)?
Answer: < 4.49

Question: What about the pIC50 (A3-KAW) of the same molecule?
Answer: < 4.49

Question: What about the pIC50 (SW 962) of the same molecule?
Answer: < 4.49

Question: What about the pIC50 (VA-ES-BJ) of the same molecule?
Answer: < 4.49

Question: What about the pIC50 (EKVX) of the same molecule?
Answer: < 4.49

Question: What about the pIC50 (HT-144) of the same molecule?
Answer: < 4.49

Question: What about the pIC50 (HCC1187) of the same molecule?
Answer: < 4.49

Question: What about the pIC50 (HEL) of the same molecule?
Answer: 5.43

Question: And the pIC50 (KNS-81-FD)?
Answer: < 4.49

Question: What about the pIC50 (SK-UT-1) of the same molecule?
Answer: < 4.49

Question: What about the pIC50 (EW-24) of the same molecule?
Answer: < 4.49

Question: And the pIC50 (COR-L88)?
Answer: < 4.49

Question: What about the pIC50 (SCC-15) of the same molecule?
Answer: < 4.49
